Experimental data as given in the NIST ThermoML archive (doi:10.1016/j.fluid.2017.12.037).
Numbers after ± are expanded uncertainties.

Assay: xn = mol fraction of the nth substance listed
Details: Gas, Buoyancy - hydrostatic balance with magnetic suspension - one sinker

C=C(F)C(F)(F)F [2,3,3,3-tetrafluoro-1-propene] + FCF
Details | mass density [kg/m3]
279.8 K, 225 kPa, x1 = 0.202 | 6.518 ± 0.009
279.81 K, 366 kPa, x1 = 0.202 | 10.881 ± 0.013
279.82 K, 422 kPa, x1 = 0.61 | 18.046 ± 0.02
279.82 K, 531 kPa, x1 = 0.202 | 16.362 ± 0.018
279.99 K, 139 kPa, x1 = 0.61 | 5.52 ± 0.009
280 K, 292 kPa, x1 = 0.61 | 12.065 ± 0.014
289.13 K, 223 kPa, x1 = 0.202 | 6.201 ± 0.008
289.13 K, 326 kPa, x1 = 0.202 | 9.243 ± 0.011
289.13 K, 498 kPa, x1 = 0.202 | 14.57 ± 0.016
289.14 K, 652 kPa, x1 = 0.202 | 19.613 ± 0.021
289.24 K, 435 kPa, x1 = 0.61 | 17.849 ± 0.02
289.25 K, 300 kPa, x1 = 0.61 | 11.915 ± 0.014
289.27 K, 142 kPa, x1 = 0.61 | 5.456 ± 0.009
289.35 K, 825 kPa, x1 = 0.062 | 21.899 ± 0.024
289.47 K, 272 kPa, x1 = 0.062 | 6.547 ± 0.008
289.52 K, 465 kPa, x1 = 0.062 | 11.568 ± 0.013
298.56 K, 1030 kPa, x1 = 0.062 | 27.002 ± 0.029
298.65 K, 448 kPa, x1 = 0.61 | 17.642 ± 0.02
298.65 K, 795 kPa, x1 = 0.062 | 19.996 ± 0.022
298.67 K, 524 kPa, x1 = 0.062 | 12.632 ± 0.014
298.68 K, 146 kPa, x1 = 0.61 | 5.4 ± 0.008
298.68 K, 314 kPa, x1 = 0.062 | 7.355 ± 0.009
298.7 K, 309 kPa, x1 = 0.61 | 11.815 ± 0.014
298.95 K, 208 kPa, x1 = 0.366 | 6.462 ± 0.009
298.96 K, 416 kPa, x1 = 0.366 | 13.396 ± 0.015
298.97 K, 629 kPa, x1 = 0.366 | 21.025 ± 0.023
299.11 K, 197 kPa, x1 = 0.202 | 5.25 ± 0.007
299.11 K, 460 kPa, x1 = 0.202 | 12.798 ± 0.015
299.11 K, 653 kPa, x1 = 0.202 | 18.744 ± 0.021
299.11 K, 817 kPa, x1 = 0.202 | 24.131 ± 0.026
308.21 K, 285 kPa, x1 = 0.062 | 6.408 ± 0.008
308.21 K, 465 kPa, x1 = 0.062 | 10.702 ± 0.012
308.21 K, 692 kPa, x1 = 0.062 | 16.408 ± 0.018
308.21 K, 839 kPa, x1 = 0.062 | 20.316 ± 0.022
308.21 K, 1102 kPa, x1 = 0.062 | 27.74 ± 0.03
308.23 K, 1301 kPa, x1 = 0.062 | 33.802 ± 0.037
308.29 K, 170 kPa, x1 = 0.61 | 6.134 ± 0.009
308.3 K, 340 kPa, x1 = 0.61 | 12.602 ± 0.015
308.32 K, 577 kPa, x1 = 0.61 | 22.346 ± 0.025
308.33 K, 769 kPa, x1 = 0.61 | 30.942 ± 0.034
308.47 K, 201 kPa, x1 = 0.366 | 6.029 ± 0.008
308.47 K, 387 kPa, x1 = 0.366 | 11.937 ± 0.014
308.47 K, 560 kPa, x1 = 0.366 | 17.726 ± 0.02
308.47 K, 794 kPa, x1 = 0.366 | 26.137 ± 0.028
308.69 K, 226 kPa, x1 = 0.202 | 5.868 ± 0.008
308.69 K, 390 kPa, x1 = 0.202 | 10.341 ± 0.012
308.69 K, 569 kPa, x1 = 0.202 | 15.462 ± 0.017
308.7 K, 735 kPa, x1 = 0.202 | 20.457 ± 0.023
308.7 K, 1050 kPa, x1 = 0.202 | 30.682 ± 0.033
317.75 K, 163 kPa, x1 = 0.062 | 3.497 ± 0.006
317.75 K, 406 kPa, x1 = 0.062 | 8.95 ± 0.011
317.75 K, 648 kPa, x1 = 0.062 | 14.699 ± 0.016
317.75 K, 910 kPa, x1 = 0.062 | 21.311 ± 0.023
317.75 K, 1331 kPa, x1 = 0.062 | 32.968 ± 0.036
317.78 K, 1625 kPa, x1 = 0.062 | 42.032 ± 0.045
317.89 K, 139 kPa, x1 = 0.61 | 4.816 ± 0.008
317.89 K, 309 kPa, x1 = 0.61 | 11.009 ± 0.013
317.9 K, 527 kPa, x1 = 0.61 | 19.436 ± 0.022
317.92 K, 735 kPa, x1 = 0.61 | 28.033 ± 0.031
317.92 K, 929 kPa, x1 = 0.61 | 36.73 ± 0.04
318.29 K, 219 kPa, x1 = 0.202 | 5.48 ± 0.007
318.29 K, 398 kPa, x1 = 0.202 | 10.192 ± 0.012
318.29 K, 586 kPa, x1 = 0.202 | 15.349 ± 0.017
318.29 K, 790 kPa, x1 = 0.202 | 21.254 ± 0.023
318.29 K, 1058 kPa, x1 = 0.202 | 29.49 ± 0.032
318.3 K, 1336 kPa, x1 = 0.202 | 38.819 ± 0.042
318.53 K, 165 kPa, x1 = 0.366 | 4.746 ± 0.007
318.53 K, 351 kPa, x1 = 0.366 | 10.354 ± 0.012
318.53 K, 563 kPa, x1 = 0.366 | 17.123 ± 0.019
318.53 K, 766 kPa, x1 = 0.366 | 23.969 ± 0.026
318.53 K, 1009 kPa, x1 = 0.366 | 32.745 ± 0.035
327.52 K, 157 kPa, x1 = 0.61 | 5.289 ± 0.008
327.52 K, 329 kPa, x1 = 0.61 | 11.37 ± 0.013
327.52 K, 536 kPa, x1 = 0.61 | 19.029 ± 0.021
327.53 K, 930 kPa, x1 = 0.61 | 35.068 ± 0.038
327.54 K, 1122 kPa, x1 = 0.61 | 43.758 ± 0.047
327.55 K, 734 kPa, x1 = 0.61 | 26.847 ± 0.029
328.33 K, 223 kPa, x1 = 0.062 | 4.64 ± 0.006
328.34 K, 637 kPa, x1 = 0.062 | 13.854 ± 0.016
328.34 K, 945 kPa, x1 = 0.062 | 21.307 ± 0.023
328.34 K, 1335 kPa, x1 = 0.062 | 31.333 ± 0.034
328.34 K, 1696 kPa, x1 = 0.062 | 41.656 ± 0.045
328.34 K, 2027 kPa, x1 = 0.062 | 52.145 ± 0.056
328.43 K, 227 kPa, x1 = 0.202 | 5.515 ± 0.007
328.43 K, 367 kPa, x1 = 0.202 | 9.049 ± 0.011
328.43 K, 626 kPa, x1 = 0.202 | 15.83 ± 0.018
328.43 K, 849 kPa, x1 = 0.202 | 22.032 ± 0.024
328.43 K, 1140 kPa, x1 = 0.202 | 30.631 ± 0.033
328.43 K, 1427 kPa, x1 = 0.202 | 39.78 ± 0.043
328.43 K, 1696 kPa, x1 = 0.202 | 49.141 ± 0.053
328.58 K, 1144 kPa, x1 = 0.366 | 36.066 ± 0.039
328.58 K, 1280 kPa, x1 = 0.366 | 41.182 ± 0.044
328.6 K, 618 kPa, x1 = 0.366 | 18.221 ± 0.02
328.6 K, 894 kPa, x1 = 0.366 | 27.268 ± 0.03
328.61 K, 203 kPa, x1 = 0.366 | 5.679 ± 0.008
328.61 K, 380 kPa, x1 = 0.366 | 10.866 ± 0.013
337.94 K, 261 kPa, x1 = 0.062 | 5.321 ± 0.007
337.94 K, 1368 kPa, x1 = 0.062 | 30.983 ± 0.034
337.95 K, 1030 kPa, x1 = 0.062 | 22.524 ± 0.025
337.95 K, 1871 kPa, x1 = 0.062 | 44.844 ± 0.049
337.95 K, 2216 kPa, x1 = 0.062 | 54.98 ± 0.059
338.06 K, 1097 kPa, x1 = 0.202 | 27.951 ± 0.03
338.06 K, 1440 kPa, x1 = 0.202 | 38.107 ± 0.041
338.06 K, 1722 kPa, x1 = 0.202 | 47.144 ± 0.051
338.06 K, 2012 kPa, x1 = 0.202 | 57.214 ± 0.061
338.07 K, 229 kPa, x1 = 0.202 | 5.349 ± 0.007
338.07 K, 435 kPa, x1 = 0.202 | 10.38 ± 0.012
338.07 K, 663 kPa, x1 = 0.202 | 16.152 ± 0.018
338.07 K, 900 kPa, x1 = 0.202 | 22.468 ± 0.025
338.13 K, 157 kPa, x1 = 0.61 | 5.11 ± 0.008
338.13 K, 347 kPa, x1 = 0.61 | 11.583 ± 0.014
338.13 K, 545 kPa, x1 = 0.61 | 18.632 ± 0.021
338.14 K, 742 kPa, x1 = 0.61 | 26.034 ± 0.028
338.14 K, 949 kPa, x1 = 0.61 | 34.303 ± 0.037
338.15 K, 1176 kPa, x1 = 0.61 | 43.906 ± 0.047
338.15 K, 1363 kPa, x1 = 0.61 | 52.402 ± 0.056
338.27 K, 391 kPa, x1 = 0.366 | 10.828 ± 0.013
338.27 K, 1611 kPa, x1 = 0.366 | 51.607 ± 0.056
338.28 K, 203 kPa, x1 = 0.366 | 5.523 ± 0.008
338.28 K, 605 kPa, x1 = 0.366 | 17.163 ± 0.019
338.28 K, 888 kPa, x1 = 0.366 | 25.992 ± 0.028
338.28 K, 1124 kPa, x1 = 0.366 | 33.805 ± 0.037
338.28 K, 1339 kPa, x1 = 0.366 | 41.354 ± 0.045
346.7 K, 514 kPa, x1 = 0.202 | 11.999 ± 0.014
346.7 K, 754 kPa, x1 = 0.202 | 17.999 ± 0.02
346.7 K, 1075 kPa, x1 = 0.202 | 26.432 ± 0.029
346.71 K, 102 kPa, x1 = 0.202 | 2.301 ± 0.005
346.71 K, 314 kPa, x1 = 0.202 | 7.219 ± 0.009
346.71 K, 1395 kPa, x1 = 0.202 | 35.395 ± 0.038
346.71 K, 1836 kPa, x1 = 0.202 | 48.831 ± 0.052
346.71 K, 2339 kPa, x1 = 0.202 | 66.017 ± 0.071
346.72 K, 2053 kPa, x1 = 0.202 | 55.971 ± 0.06
347.61 K, 2249 kPa, x1 = 0.062 | 52.666 ± 0.057
347.62 K, 600 kPa, x1 = 0.062 | 12.06 ± 0.014
347.62 K, 1099 kPa, x1 = 0.062 | 23.044 ± 0.025
347.62 K, 1445 kPa, x1 = 0.062 | 31.254 ± 0.034
347.62 K, 2663 kPa, x1 = 0.062 | 65.472 ± 0.07
347.8 K, 256 kPa, x1 = 0.61 | 8.159 ± 0.01
347.81 K, 464 kPa, x1 = 0.61 | 15.105 ± 0.017
347.81 K, 667 kPa, x1 = 0.61 | 22.236 ± 0.024
347.81 K, 880 kPa, x1 = 0.61 | 30.083 ± 0.033
347.81 K, 1108 kPa, x1 = 0.61 | 38.968 ± 0.042
347.81 K, 1320 kPa, x1 = 0.61 | 47.76 ± 0.051
347.81 K, 1481 kPa, x1 = 0.61 | 54.813 ± 0.059
347.81 K, 1715 kPa, x1 = 0.61 | 65.61 ± 0.07
347.93 K, 143 kPa, x1 = 0.366 | 3.726 ± 0.006
347.93 K, 390 kPa, x1 = 0.366 | 10.422 ± 0.012
347.93 K, 675 kPa, x1 = 0.366 | 18.538 ± 0.02
347.93 K, 897 kPa, x1 = 0.366 | 25.186 ± 0.027
347.93 K, 1198 kPa, x1 = 0.366 | 34.699 ± 0.037
347.93 K, 1496 kPa, x1 = 0.366 | 44.776 ± 0.048
347.93 K, 1753 kPa, x1 = 0.366 | 54.093 ± 0.058
347.94 K, 2000 kPa, x1 = 0.366 | 63.729 ± 0.068
